Results from US11478416B2, “Ingredients for use in personal care compositions” (Croda, Inc., priority 2016, dated 2022).
Entries after “also recorded” stand apart in the source; their conditions may differ.

Assay: Frizz control test, panel ranking of tresses at 75% RH
Details: from panel ranking
Description: The formulations H to M as set out in Table 4 were prepared. Each hair conditioner formulation was prepared by combining the Part A ingredients while mixing and heating to 75-80° C., and separately combining the Part B ingredients and heating to the same temperature. The Part A and Part B ingredients were then combined while mixing at temperature and allowed to cool to 40° C. Once at 40° C., the Part C ingredients were added and the pH adjusted to about 4.5±0.5 using lactic acid.
For each formulation H to M, 7 Brazilian curly hair tresses available from International Hair Importers Inc., NYC, were cut to 1.5 cm wide and 20 cm long.
The tresses were washed with a simple cleansing shampoo (SLES/Betaine shampoo) using a 1:10 w/w shampoo to hair ratio for 1 minute. The tresses were then rinsed with warm water for 1 minute or until free of foam. 3 g of the respective formulation was then massaged into the hair tresses for 1 minute. The treated tresses were left to sit for 20 minutes and then the formulations rinsed out of the hair for 45 seconds. Once rinsed, the tresses were blown dry using a blow dryer and round brush, and then flat-ironed using a ceramic iron at 400° F. for 5 passes. […]
The panelists were asked to rank the tresses from 1 (least frizz) to 6 (most frizz). The mode and average of the panelists' rankings were calculated for each to give the overall ranking.

With “Isostearic Acid—DETA Tertiary Amine [Example 3a]” the “frizz control, conclusion in words” value was “resisted frizz the best; also recorded: aids in frizz control”.
